According to the NIST ThermoML archive (doi:10.1021/je800334m):

Test: excess molar enthalpy (molar enthalpy of mixing); xn = mol fraction of the nth substance listed
Conditions: Liquid, Flow calorimetry

CN(C)CCO [2-(N,N-dimethylamino)ethanol] + CCO
excess molar enthalpy [kcal/mol]
Conditions | 298.2 K | 313.2 K | 328.2 K
100 kPa, x1 = 0.0717 | -0.035 | -0.0369 | –
100 kPa, x1 = 0.1392 | -0.0579 | -0.0621 | –
100 kPa, x1 = 0.2028 | – | -0.0786 | –
100 kPa, x1 = 0.2034 | – | – | -0.0744
100 kPa, x1 = 0.2054 | -0.0763 | – | –
100 kPa, x1 = 0.2654 | – | – | -0.0854
100 kPa, x1 = 0.2665 | -0.0874 | -0.0911 | –
100 kPa, x1 = 0.3253 | – | – | -0.092
100 kPa, x1 = 0.3264 | -0.0938 | -0.0978 | –
100 kPa, x1 = 0.3839 | – | – | -0.0953
100 kPa, x1 = 0.3845 | -0.0975 | -0.101 | –
100 kPa, x1 = 0.4385 | – | – | -0.0962
100 kPa, x1 = 0.4399 | -0.0983 | -0.102 | –
100 kPa, x1 = 0.4916 | -0.0967 | -0.1 | –
100 kPa, x1 = 0.4924 | – | – | -0.094
100 kPa, x1 = 0.5427 | -0.0933 | -0.0963 | -0.0913
100 kPa, x1 = 0.591 | – | – | -0.0857
100 kPa, x1 = 0.5925 | -0.0886 | -0.0911 | –
100 kPa, x1 = 0.6393 | – | – | -0.0799
100 kPa, x1 = 0.6409 | -0.0822 | -0.0846 | –
100 kPa, x1 = 0.683 | – | -0.0777 | –
100 kPa, x1 = 0.6848 | – | – | -0.0727
100 kPa, x1 = 0.6874 | -0.0745 | – | –
100 kPa, x1 = 0.727 | – | -0.0695 | –
100 kPa, x1 = 0.7296 | – | – | -0.065
100 kPa, x1 = 0.7314 | -0.0665 | – | –
100 kPa, x1 = 0.7727 | -0.0592 | -0.0602 | –
100 kPa, x1 = 0.8108 | – | -0.0513 | –
100 kPa, x1 = 0.8157 | -0.0487 | – | –
100 kPa, x1 = 0.8553 | -0.0402 | -0.0402 | –
100 kPa, x1 = 0.8911 | -0.031 | -0.0309 | –
100 kPa, x1 = 0.9281 | -0.0203 | -0.0209 | –
100 kPa, x1 = 0.9663 | -0.00889 | -0.00985 | –
10000 kPa, x1 = 0.0699 | – | -0.037 | –
10000 kPa, x1 = 0.0721 | -0.0371 | – | –
10000 kPa, x1 = 0.1399 | -0.0613 | -0.0633 | –
10000 kPa, x1 = 0.2039 | -0.0767 | -0.0802 | –
10000 kPa, x1 = 0.2044 | – | – | -0.0752
10000 kPa, x1 = 0.265 | – | -0.0917 | –
10000 kPa, x1 = 0.2667 | – | – | -0.086
10000 kPa, x1 = 0.2678 | -0.0878 | – | –
10000 kPa, x1 = 0.3249 | – | -0.0989 | –
10000 kPa, x1 = 0.3267 | – | – | -0.0926
10000 kPa, x1 = 0.3279 | -0.0955 | – | –
10000 kPa, x1 = 0.3829 | -0.0988 | -0.102 | –
10000 kPa, x1 = 0.3835 | – | – | -0.0962
10000 kPa, x1 = 0.4381 | -0.0997 | -0.103 | -0.0965
10000 kPa, x1 = 0.4919 | – | – | -0.0945
10000 kPa, x1 = 0.4933 | -0.0979 | -0.101 | –
10000 kPa, x1 = 0.5421 | – | – | -0.0909
10000 kPa, x1 = 0.5443 | -0.0944 | -0.0972 | –
10000 kPa, x1 = 0.5902 | – | -0.0923 | –
10000 kPa, x1 = 0.5926 | – | – | -0.0858
10000 kPa, x1 = 0.5941 | -0.0891 | – | –
10000 kPa, x1 = 0.6383 | -0.0835 | -0.0856 | -0.0795
10000 kPa, x1 = 0.6845 | -0.0762 | -0.0782 | –
10000 kPa, x1 = 0.7283 | -0.0684 | -0.0701 | –
10000 kPa, x1 = 0.7739 | -0.0591 | -0.0605 | –
10000 kPa, x1 = 0.8118 | -0.0505 | -0.0517 | –
10000 kPa, x1 = 0.8511 | -0.0409 | -0.042 | –
10000 kPa, x1 = 0.8917 | -0.0305 | -0.0311 | –
10000 kPa, x1 = 0.9285 | -0.0202 | -0.021 | –
10000 kPa, x1 = 0.9665 | -0.00903 | -0.00989 | –

CN(C)CCO [2-(N,N-dimethylamino)ethanol] + CO
Conditions | excess molar enthalpy [kcal/mol]
298.2 K, 100 kPa, x1 = 0.0499 | -0.0602
298.2 K, 100 kPa, x1 = 0.099 | -0.108
298.2 K, 100 kPa, x1 = 0.1495 | -0.144
298.2 K, 100 kPa, x1 = 0.1981 | -0.172
298.2 K, 100 kPa, x1 = 0.2479 | -0.193
298.2 K, 100 kPa, x1 = 0.2982 | -0.207
298.2 K, 100 kPa, x1 = 0.3481 | -0.214
298.2 K, 100 kPa, x1 = 0.3968 | -0.217
298.2 K, 100 kPa, x1 = 0.4466 | -0.214
298.2 K, 100 kPa, x1 = 0.4972 | -0.207
298.2 K, 100 kPa, x1 = 0.5483 | -0.197
298.2 K, 100 kPa, x1 = 0.5992 | -0.183
298.2 K, 100 kPa, x1 = 0.6494 | -0.167
298.2 K, 100 kPa, x1 = 0.6981 | -0.149
298.2 K, 100 kPa, x1 = 0.7506 | -0.127
298.2 K, 100 kPa, x1 = 0.8007 | -0.105
298.2 K, 100 kPa, x1 = 0.8477 | -0.0821
298.2 K, 100 kPa, x1 = 0.8977 | -0.0564
298.2 K, 100 kPa, x1 = 0.9512 | -0.027
298.2 K, 10000 kPa, x1 = 0.05 | -0.0659
298.2 K, 10000 kPa, x1 = 0.0993 | -0.112
298.2 K, 10000 kPa, x1 = 0.1479 | -0.146
298.2 K, 10000 kPa, x1 = 0.1986 | -0.175
298.2 K, 10000 kPa, x1 = 0.2485 | -0.194
298.2 K, 10000 kPa, x1 = 0.2961 | -0.207
298.2 K, 10000 kPa, x1 = 0.3458 | -0.214
298.2 K, 10000 kPa, x1 = 0.3976 | -0.216
298.2 K, 10000 kPa, x1 = 0.4474 | -0.214
298.2 K, 10000 kPa, x1 = 0.4981 | -0.207
298.2 K, 10000 kPa, x1 = 0.5447 | -0.198
298.2 K, 10000 kPa, x1 = 0.5952 | -0.184
298.2 K, 10000 kPa, x1 = 0.645 | -0.168
298.2 K, 10000 kPa, x1 = 0.6988 | -0.148
298.2 K, 10000 kPa, x1 = 0.7452 | -0.129
298.2 K, 10000 kPa, x1 = 0.7948 | -0.108
298.2 K, 10000 kPa, x1 = 0.8481 | -0.0818
298.2 K, 10000 kPa, x1 = 0.898 | -0.0562
313.2 K, 100 kPa, x1 = 0.0499 | -0.062
313.2 K, 100 kPa, x1 = 0.099 | -0.109
313.2 K, 100 kPa, x1 = 0.1495 | -0.148
313.2 K, 100 kPa, x1 = 0.1981 | -0.177
313.2 K, 100 kPa, x1 = 0.2479 | -0.197
313.2 K, 100 kPa, x1 = 0.2982 | -0.21
313.2 K, 100 kPa, x1 = 0.3481 | -0.217
313.2 K, 100 kPa, x1 = 0.3968 | -0.219
313.2 K, 100 kPa, x1 = 0.4466 | -0.217
313.2 K, 100 kPa, x1 = 0.4972 | -0.211
313.2 K, 100 kPa, x1 = 0.5483 | -0.199
313.2 K, 100 kPa, x1 = 0.5992 | -0.187
313.2 K, 100 kPa, x1 = 0.6494 | -0.17
313.2 K, 100 kPa, x1 = 0.6981 | -0.151
313.2 K, 100 kPa, x1 = 0.7506 | -0.13
313.2 K, 100 kPa, x1 = 0.8007 | -0.106
313.2 K, 100 kPa, x1 = 0.8477 | -0.0831
313.2 K, 100 kPa, x1 = 0.8977 | -0.0566
313.2 K, 100 kPa, x1 = 0.9512 | -0.028
313.2 K, 10000 kPa, x1 = 0.0502 | -0.0624
313.2 K, 10000 kPa, x1 = 0.0996 | -0.111
313.2 K, 10000 kPa, x1 = 0.1484 | -0.148
313.2 K, 10000 kPa, x1 = 0.1992 | -0.177
313.2 K, 10000 kPa, x1 = 0.2491 | -0.198
313.2 K, 10000 kPa, x1 = 0.2968 | -0.211
313.2 K, 10000 kPa, x1 = 0.3465 | -0.219
313.2 K, 10000 kPa, x1 = 0.3983 | -0.222
313.2 K, 10000 kPa, x1 = 0.4482 | -0.219
313.2 K, 10000 kPa, x1 = 0.4989 | -0.213
313.2 K, 10000 kPa, x1 = 0.5455 | -0.203
313.2 K, 10000 kPa, x1 = 0.596 | -0.19
313.2 K, 10000 kPa, x1 = 0.6457 | -0.174
313.2 K, 10000 kPa, x1 = 0.6995 | -0.153
313.2 K, 10000 kPa, x1 = 0.7458 | -0.133
313.2 K, 10000 kPa, x1 = 0.7953 | -0.111
313.2 K, 10000 kPa, x1 = 0.8485 | -0.0847
313.2 K, 10000 kPa, x1 = 0.8983 | -0.0578
328.2 K, 100 kPa, x1 = 0.1479 | -0.141
328.2 K, 100 kPa, x1 = 0.1972 | -0.171
328.2 K, 100 kPa, x1 = 0.2469 | -0.192
328.2 K, 100 kPa, x1 = 0.2976 | -0.206
328.2 K, 100 kPa, x1 = 0.3469 | -0.214
328.2 K, 100 kPa, x1 = 0.3974 | -0.216
328.2 K, 100 kPa, x1 = 0.4466 | -0.214
328.2 K, 100 kPa, x1 = 0.4956 | -0.207
328.2 K, 100 kPa, x1 = 0.5465 | -0.197
328.2 K, 100 kPa, x1 = 0.5963 | -0.183
328.2 K, 100 kPa, x1 = 0.6473 | -0.167
328.2 K, 10000 kPa, x1 = 0.1487 | -0.142
328.2 K, 10000 kPa, x1 = 0.1983 | -0.171
328.2 K, 10000 kPa, x1 = 0.2481 | -0.194
328.2 K, 10000 kPa, x1 = 0.2973 | -0.207
328.2 K, 10000 kPa, x1 = 0.3465 | -0.216
328.2 K, 10000 kPa, x1 = 0.397 | -0.218
328.2 K, 10000 kPa, x1 = 0.446 | -0.217
328.2 K, 10000 kPa, x1 = 0.4972 | -0.21
328.2 K, 10000 kPa, x1 = 0.5455 | -0.201
328.2 K, 10000 kPa, x1 = 0.5979 | -0.187
328.2 K, 10000 kPa, x1 = 0.6457 | -0.172
328.2 K, 10000 kPa, x1 = 0.6973 | -0.153
